How the values were obtained:
[1] = test system: aphakia (ak/ak) mice; experiment: Behavioral studies in ak/ak mice (Pole, Challenging Beam, Cylinder, Rotarod) and SN histology; format: in vivo, mouse
Experimental: Either 20 mg/kg of AQ (AQ group) or the saline (Saline group) was intraperitoneally injected (I.P.) twice per day for two weeks. 8 mg/kg of L-DOPA (L-DOPA group) in 0.5% DMSO was injected (I.P.) once per day for two weeks. The L-DOPA group was given 12.5 mg/kg benserazide 20 min prior to administration of L-DOPA.
Each ak mouse was randomly assigned into one of three experiment groups, (1) saline group (negative control; n=8), (2) L-DOPA group (positive control; n=8), (3) AQ group (n=10). Each WT or rdl mouse was randomly divided into two groups, (1) saline group (n=8) and (2) AQ group (n=10). Pole Test, Challenging Beam Traversal Test, and Cylinder Test were performed at two time points, immediately and one month after two weeks of either AQ or saline injection. Each mouse ran each task twice. Rota rod test was performed immediately after two weeks of either drug or saline injection. Acclimation and data recording process were identical to the rat study described above. All tasks were performed as described previously^11 and the short description of each task is as follows.
A vertical wooden pole 50 cm in length and 1 cm in diameter was used for Pole Test. Each mouse was gently placed head upwards on top of the pole which is placed on each animal's home cage. Each mouse ran tree trials per session during 2 training sessions. On the testing day, mice ran three trials. Two parameters (the meantime to orient downward and the total travel mean time) were used for the statistical analysis.
A 1 m length of plastic beam was used for Challenging Beam Traversal Test. The starting width of the beam was 3.5 cm and it gradually narrowed in 1 c increments to 0.5 cm at the other end site of the beam. Animals were trained to walk from the wide end to the other end for 2 sessions, three trials per session before testing. A mesh grid was removed during the training period. On the testing day, a mesh grid (1 cm square) covering the beam surface was equipped leaving a […] room between the grid and the beam surface. On the testing day, mice ran three trials. Two parameters (the mean number of steps taken by each animal and the mean time to traverse across three trials) were collected and used for statistical analysis.
A small transparent cylinder (height, 15.5 cm; diameter, 12.7 cm) was used to evaluate somatosensory motor function. Mice were placed in the cylinder and their rears were counted for 5 minutes. The forelimb touching the Plexiglas wall (a vertical movement) is defined as a full rear. The mean number of forelimb use was calculated for the statistical analysis. […]
The Rota rod equipment (Med-Associates, Inc, Albans, Vt., USA) was used to measure motor coordination. […] The mean latency to fall off from the Rota rod was measured for the statistical analysis. […]

[2] = biological target: T1, Nurr1 LBD (Mus musculus, UniProt Q06219); experiment: Surface plasmon resonance (BIAcore) binding, Nurr1-LBD
T1 sequence (Q06219 328-598): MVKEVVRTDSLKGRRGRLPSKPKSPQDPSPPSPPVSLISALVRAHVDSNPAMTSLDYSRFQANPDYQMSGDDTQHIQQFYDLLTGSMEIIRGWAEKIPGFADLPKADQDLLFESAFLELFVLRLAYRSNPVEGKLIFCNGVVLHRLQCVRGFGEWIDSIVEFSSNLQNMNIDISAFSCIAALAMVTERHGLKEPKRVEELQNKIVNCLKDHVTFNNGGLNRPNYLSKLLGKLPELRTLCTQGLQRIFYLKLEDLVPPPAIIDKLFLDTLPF
Experimental: Binding experiments were performed with the surface Plasmon Resonance-based biosensor instrument BIAcore 3000 (BIAcore AB, Uppsala). Immobilization of the purified proteins on the sensor surface was performed following the standard amine coupling procedure according to manufacturer's instructions. The final immobilization response of each protein was 6000 resonance units. A reference surface was generated simultaneously under the same conditions with BSA and used as a blank to correct for instrument and buffer artifacts. AQ and kanamycin were injected at variable concentrations at 20 μl/min flow rate, and binding to the protein immobilized on the chip was monitored in real-time. […] Binding data were analyzed using the BIAcore 3000 CONTROL® software and the BIAEVALUATION® software.
To investigate whether AQ and CQ physically interact with Nurr1's LBD, the inventors purified the Nurr1 LBD polypeptide (amino acid 328-598) and analyzed their physical binding using the Biacore S51 SPR sensor, which has a higher sensitivity and improved fluidics, enabling the monitoring of small signal changes derived from binding of compounds to proteins.

[3] = biological target: T2, Nurr1 DBD (Mus musculus, UniProt Q06219); experiment: GAL4 / GAL4-Nurr1 DBD reporter assay; format: cell-based
T2 construct: the yeast transcription factor GAL4's DBD is fused to either Nurr1 LBD or DBD; expressed in transfected cells; host or cells: SK-N-BE(2)C human neuroblastoma cells
T2 sequence (Q06219 260-335 limits assumed): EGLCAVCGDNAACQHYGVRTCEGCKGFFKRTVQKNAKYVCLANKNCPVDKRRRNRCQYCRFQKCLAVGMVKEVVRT

[4] = biological target: T1, Nurr1 LBD; experiment: Filter binding assay with [3H]-CQ (saturation and competition); conditions: 500 nM [3H]-CQ
Text: The basal level of transcriptional activity was normalized to 1. The bars represent means±SEM from three independent experiments. (FIG. 13C) Effect of Nurr1 specific siRNA on Nurr1 LBD's transactivation activity. […] (FIG. 13D) Human neuroblastoma SK-N-BE(2)C cells were transfected with the N-terminal flag-tagged SRC1 or SRC3 and the C-terminal myc-tagged full-length Nurr1. […] Cell lysates were immunoprecipitated (IP) using anti-flag antibodies and analyzed by immunoblotting (IB) using anti-myc antibodies. […] The fold induction was derived by comparing each luciferase activity to basal level obtained by non-SRC transfection. […] The concentrations (04) are shown next to the arrows. […] Specific binding was calculated as the difference of total and non-specific binding. The insert indicates Scatchard analysis of the specific binding. […] The data represent the average of triplicate from three independent experiments. All graphs, Kd, Ki, and Bmax values were generated using the non-linear regression program Prism version 5.02.
GF/C filters were wet with in binding buffer and placed on a 48-place filter manifold. […] Filters were washed with 4×100 ml binding buffer, dried, and mixed with 5 ml Scintiverse BD (Fisher) and radioactivity was determined in a Beckman LS6000SC liquid scintillation counter. […] The mixture was applied to GF/C filter and filter was washed and counted as described above.

For CCN(CC)Cc1cc(Nc2ccnc3cc(Cl)ccc23)ccc1O [AQ, amodiaquine], the “motor deficits in Pole, Challenging Beam, Cylinder and Rotarod tests” value ([1]; 2 weeks of AQ 20 mg/kg i.p. twice per day) was “significantly improved”, the “activated microglia (CD11b) in the SN” value ([1]; after AQ for 2 weeks) was “reduced to the level of wild type mice” and the “number of TH+ neurons in ak/ak mice” value ([1]; data not shown) was “not detectably altered”. For the same molecule, the “binding to Nurr1-LBD (SPR)” value [2] was “specifically bound”, the “response with GAL4 or GAL4-Nurr1 DBD” value [3] was “no response” and the Ki [4] was 0.246 µM.

From patent publication US11026943B2, “Aminoquinoline derivatives and uses thereof” (UNIVERSITY OF DELHI, priority 2012, dated 2021)
